tested on: STING pathway; assay: IFN β reporter assay (HTRF, 2′3′-cGAMP-stimulated THP1 cells); assay type: cell-based, human; conditions: Homo sapiens, THP-1, THP1 cells, 5 μM 2′3′-cGAMP, IFN β secretion inhibition; class symbols; read-out: IFN β reporter activity IC50
Method: STING pathway deactivation by the compounds described herein was measured using THP1 cells. The THP1 Cells (obtained from ATCC, Cat #TIB-202) were maintained in RPMI-1640 (Gibco, Cat #22400105), 10% FBS, 1% Pen-Strep, 0.05 mM 2-mercaptoethanol. For STING activation, 2′3′-cGAMP (MW 718.38, obtained from Invivogen) was used and prepared in serum-free RPMI-1640 media. Growth media: RPMI-1640 (HEPES, glutamine), 10% FBS, 1% Pen-Strep, 0.05 mM 2-mercaptoethanol. Assay media: RPMI-1640 (HEPES, glutamine), 0.5% FBS. 2′3′-cGAMP: Dissolve 2′3′-cGAMP to 10 mM stock in H2O.
The cells were prepared and seeded at 100K, 90 μL/well with assay media in cell culture plate (Greiner 655180). The compounds were added in 96-well tissue culture plates by Tecan D300e for a final concentration of 0.00137-3 μM.
Lipo2000/3000 and 2′3′-cGAMP stock solutions were diluted respectively in serum-free RPMI-1640 media. The diluted 2′3′-cGAMP and Lipo (V/V=1:1) were mixed and stood for 15 min at room temperature. 10 μL 2,3-cGAMP/Lipofectamine (10×) was transferred to the 96-well assay plate with a final 2′3′-cGAMP concentration of 5 μM. The cell plates were centrifuged at 1000 rpm for 5 min after incubating at 37° C., 5% CO2 overnight.
All reagents (human IFN beta kit, Cisbio 62HIFNBPEG) were warmed to room temperature for at least 30 min before the assay. The instructions of the kit were followed to prepare the detection media. 14 μL of cell supernatants was transferred into their dedicated wells in 384-well plate. Then 2 μL of the activation reagent solution and 4 μL of the mixed antibody solution were added to all wells. The plate was sealed and incubated for 3 h at room temperature.
The HTRF signal was read in Envision (PerkinElmer). IFN β reporter activity was then measured. The calculated ratio is the signal at 665 nm/signal at 615 nm. IC50 values are calculated by using standard methods known in the art.

First: O=C(Nc1c[nH]c2ccc(F)cc12)c1cc2ccc(Br)cn2n1 [Example 57]
Second: O=C(Nc1c[nH]c2cc(F)c(F)cc12)c1cc2ccc(Br)cn2n1 [Example 58]
The IC50 of the first is lower: < 50 nM for the first, 200 to 1000 nM for the second.

`O=C(Nc1c[nH]c2cc(F)c(F)cc12)c1cnn2cc(Br)ccc12` [Example 59] and `O=C(Nc1c[nH]c2ccc(F)cc12)c1cnn2cc(C(F)(F)F)ccc12` [Example 66] fall in the same range of IC50: 200 to 1000 nM for the first, 200 to 1000 nM for the second.

First: O=C(Nc1c[nH]c2ccc(F)cc12)c1n[nH]c2cc(N3CCOCC3)ccc12 [Example 60, N-(5-fluoro-1H-indol-3-yl)-6-morpholino-1H-indazole-3-carboxamide]
Second: O=C(O)c1ccc2c(C(=O)Nc3c[nH]c4ccc(F)cc34)n[nH]c2c1 [Example 88, 3-[(5-fluoro-1H-indol-3-yl)carbamoyl]-1H-indazole-6-carboxylic acid]
The IC50 of the first is lower: 200 to 1000 nM for the first, > 1000 nM for the second. The first is the more potent here.

`CCCCc1ccc2c(C(=O)Nc3c[nH]c4ccc(F)cc34)n[nH]c2c1` [Example 61] and `O=C(Nc1c[nH]c2ccc(F)cc12)c1n[nH]c2cc(CNCC(F)(F)F)ccc12` [Example 93] fall in the same range of IC50: 50 to 200 nM for the first, 50 to 200 nM for the second.

Compared with `O=C(Nc1c[nH]c2ccc(F)cc12)c1n[nH]c2cc(Oc3ccncc3)ccc12` [Example 62], `O=C(Nc1c[nH]c2ccc(F)cc12)c1n[nH]c2nc(OCC(F)(F)F)ccc12` [Example 69] is lower in IC50: > 1000 nM for the first, 50 to 200 nM for the second.

`O=C(Nc1c[nH]c2cc(F)c(F)cc12)c1n[nH]c2ccccc12` [Example 63] and `O=C(Nc1c[nH]c2cc(F)c(F)cc12)c1c[nH]c2ccccc12` [Example 64] fall in the same range of IC50: 50 to 200 nM for the first, 50 to 200 nM for the second.

First: O=C(Nc1c[nH]c2cc(F)c(F)cc12)c1cc2ccccc2[nH]1 [Example 65]
Second: O=C(Nc1c[nH]c2cc(F)c(F)cc12)c1cc2ccc(C(F)(F)F)cc2[nH]1 [Example 79]
The IC50 of the first is lower: < 50 nM for the first, 50 to 200 nM for the second. The first is the more potent here.

`O=C(Nc1c[nH]c2cc(F)c(F)cc12)c1n[nH]c2ncc(Br)cc12` [Example 68] and `O=C(Nc1c[nH]c2cc(F)c(F)cc12)c1n[nH]c2nc(OCC(F)(F)F)ccc12` [Example 70] fall in the same range of IC50: 50 to 200 nM for the first, 50 to 200 nM for the second.

`Cn1cc(C(=O)Nc2c[nH]c3ccc(F)cc23)c2ccc(C3=CCOCC3)cc21` [Example 72] and `Cn1cc(C(=O)Nc2c[nH]c3ccc(F)cc23)c2cc(F)c(C3=CCOCC3)cc21` [Example 80] fall in the same range of IC50: 50 to 200 nM for the first, 50 to 200 nM for the second.

Compared with `Cn1cc(C(=O)Nc2c[nH]c3ccc(F)cc23)c2ccc(C3CCOCC3)cc21` [Example 73], `Cn1cc(C(=O)Nc2c[nH]c3ccc(F)cc23)c2cc(F)c(C3CCOCC3)cc21` [Example 81] is lower in IC50: 50 to 200 nM for the first, < 50 nM for the second.

`Cn1cc(C(=O)Nc2c[nH]c3ccc(F)cc23)c2ccc(OCC(F)(F)F)nc21` [Example 74] and `Cn1cc(C(=O)Nc2c[nH]c3ccc(F)cc23)c2cc(F)c(CNCC(F)(F)F)cc21` [Example 91, 5-fluoro-N-(5-fluoro-1H-indol-3-yl)-1-methyl-6-[(2,2,2-trifluoroethylamino)methyl]indole-3-carboxamide] fall in the same range of IC50: 50 to 200 nM for the first, 50 to 200 nM for the second.

Compared with `O=C(Nc1c[nH]c2ccc(F)cc12)c1cc2ccc(C(F)(F)F)cc2[nH]1` [Example 78], `Cn1cc(C(=O)Nc2c[nH]c3ccc(C(=O)O)cc23)c2ccc(C(F)(F)F)cc21` [Example 87, 3-[[1-methyl-6-(trifluoromethyl)indole-3-carbonyl]amino]-1H-indole-5-carboxylic acid] is higher in IC50: 50 to 200 nM for the first, > 1000 nM for the second.

`Cn1nc(C(=O)Nc2c[nH]c3ccccc23)c2ccc(C#N)cc21` [Example 86, 6-cyano-N-(1H-indol-3-yl)-1-methyl-indazole-3-carboxamide] and `CNCc1ccc2[nH]cc(NC(=O)c3cn(C)c4cc(C(F)(F)F)ccc34)c2c1` [Example 110, 1-methyl-N-(5-((methylamino)methyl)-1H-indol-3-yl)-6-(trifluoromethyl)-1H-indole-3-carboxamide] cannot be ordered by IC50: > 1000 nM for the first, > 1000 nM for the second.

First: NC(=O)c1ccc2c(C(=O)N(CC(F)(F)F)c3c[nH]c4cc(F)ccc34)n[nH]c2c1 [Example 89, N-(6-fluoro-1H-indol-3-yl)-N-(2,2,2-trifluoroethyl)-1H-indazole-3,6-dicarboxamide]
Second: CN(Cc1cc2c(cc1F)c(C(=O)Nc1c[nH]c3ccc(F)cc13)cn2C)CC(F)(F)F [Example 92, 5-fluoro-N-(5-fluoro-1H-indol-3-yl)-1-methyl-6-[[methyl(2,2,2-trifluoroethyl)amino]methyl]indole-3-carboxamide]
The IC50 of the first is higher: 200 to 1000 nM for the first, 50 to 200 nM for the second.

`CN(C)Cc1cc2c(cc1F)c(C(=O)Nc1c[nH]c3ccc(F)cc13)cn2C` [Example 94] and `Cn1cc(C(=O)Nc2c[nH]c3ccc(F)cc23)c2cc(F)c(CNC(C)(C)C)cc21` [Example 96] cannot be ordered by IC50: > 1000 nM for the first, > 1000 nM for the second.

`Cn1cc(C(=O)Nc2c[nH]c3ccc(F)cc23)c2cc(F)c(CN3CCOCC3)cc21` [Example 95] and `Cn1cc(C(=O)Nc2c[nH]c3ccc(F)cc23)c2cc(F)c(CN3CCC(F)CC3)cc21` [Example 102] fall in the same range of IC50: 200 to 1000 nM for the first, 200 to 1000 nM for the second.

Compared with `Cn1cc(C(=O)Nc2c[nH]c3ccc(F)cc23)c2cc(F)c(CNCCC(F)(F)F)cc21` [Example 97, 5-fluoro-N-(5-fluoro-1H-indol-3-yl)-1-methyl-6-[(3,3,3-trifluoropropylamino)methyl]indole-3-carboxamide], `C[C@H](NCc1cc2c(cc1F)c(C(=O)Nc1c[nH]c3ccc(F)cc13)cn2C)C(F)(F)F` [Example 104] is lower in IC50: 50 to 200 nM for the first, < 50 nM for the second. The second is the more potent here.

First: Cn1cc(C(=O)Nc2c[nH]c3ccc(F)cc23)c2cc(F)c(CN3CCC(F)(F)CC3)cc21 [Example 98]
Second: Cn1cc(C(=O)Nc2c[nH]c3ccc(F)cc23)c2cc(F)c(CN3CCCCC3)cc21 [Example 99]
The IC50 of the first is lower: < 50 nM for the first, > 1000 nM for the second. The first is the more potent here.

`Cn1cc(C(=O)Nc2c[nH]c3ccc(F)cc23)c2cc(F)c(CNC3CCC(F)(F)CC3)cc21` [Example 100] and `Cn1cc(C(=O)Nc2c[nH]c3ccc(F)cc23)c2cc(F)c(CNCC(F)F)cc21` [Example 103] fall in the same range of IC50: 50 to 200 nM for the first, 50 to 200 nM for the second.

Compared with `Cn1cc(C(=O)Nc2c[nH]c3ccc(F)cc23)c2cc(F)c(CN3CCN(CC(F)(F)F)CC3)cc21` [Example 101], `C[C@@H](NCc1cc2c(cc1F)c(C(=O)Nc1c[nH]c3ccc(F)cc13)cn2C)C(F)(F)F` [Example 105] is lower in IC50: 50 to 200 nM for the first, < 50 nM for the second.

Going from `Cn1cc(C(=O)Nc2c[nH]c3cc(F)c(F)cc23)c2cc(F)c(CNCC(F)(F)F)cc21` [Example 106] to `CN(C)Cc1ccc2[nH]cc(NC(=O)c3cn(C)c4cc(C(F)(F)F)ccc34)c2c1` [Example 111, N-(5-((dimethylamino)methyl)-1H-indol-3-yl)-1-methyl-6-(trifluoromethyl)-1H-indole-3-carboxamide], the IC50 rises from < 50 nM to > 1000 nM. The first is the more potent here.

With `Cn1cc(C(=O)Nc2c[nH]c3ccc(N4CCNCC4=O)cc23)c2ccc(C(F)(F)F)cc21` [Example 108, 1-methyl-N-[5-(2-oxopiperazin-1-yl)-1H-indol-3-yl]-6-(trifluoromethyl)indole-3-carboxamide] the IC50 was > 1000 nM.

same assay, conditions: Homo sapiens, THP-1, read-out: IFN β reporter activity IC50

Going from `O=C(Nc1c[nH]c2ccc(F)cc12)c1cn(C2CC2)c2cc(C(F)(F)F)ccc12` [Example 67, 1-cyclopropyl-N-(5-fluoro-1H-indol-3-yl)-6-(trifluoromethyl)indole-3-carboxamide] to `O=C(Nc1c[nH]c2ccc(F)cc12)c1cn(C2CNC2)c2cc(C(F)(F)F)ccc12` [Example 113, 1-(azetidin-3-yl)-N-(5-fluoro-1H-indol-3-yl)-6-(trifluoromethyl)indole-3-carboxamide], the IC50 rises from < 50 nM to > 1000 nM. The first is the more potent here.

First: Cn1cc(C(=O)Nc2c[nH]c3ccc(F)cc23)c2ccc(Cl)nc21 [Example 71]
Second: CN1CC(n2cc(C(=O)Nc3c[nH]c4ccc(F)cc34)c3ccc(C(F)(F)F)cc32)C1 [Example 114, N-(5-fluoro-1H-indol-3-yl)-1-(1-methylazetidin-3-yl)-6-(trifluoromethyl)indole-3-carboxamide]
The IC50 of the first is lower: 50 to 200 nM for the first, > 1000 nM for the second.

First: O=C(Nc1c[nH]c2ccc(F)cc12)c1cn([C@@H]2CCOC2)c2cc(C(F)(F)F)ccc12 [Example 76]
Second: O=C(Nc1c[nH]c2ccc(F)cc12)c1cn([C@H]2CCOC2)c2cc(C(F)(F)F)ccc12 [Example 77]
The IC50 of the first is higher: 200 to 1000 nM for the first, 50 to 200 nM for the second. The second is the more potent here.

First: N#Cc1ccc2[nH]cc(NC(=O)c3cn(C4COC4)c4cc(C5=CCOCC5)c(F)cc34)c2c1 [Example 112, N-(5-cyano-1H-indol-3-yl)-6-(3,6-dihydro-2H-pyran-4-yl)-5-fluoro-1-(oxetan-3-yl)indole-3-carboxamide]
Second: CN1CC=C(c2cc3c(cc2F)c(C(=O)Nc2c[nH]c4ccc(F)cc24)cn3C)CC1 [Example 115, 5-fluoro-N-(5-fluoro-1H-indol-3-yl)-1-methyl-6-(1-methyl-3,6-dihydro-2H-pyridin-4-yl)indole-3-carboxamide]
The IC50 of the first is lower: 50 to 200 nM for the first, > 1000 nM for the second. The first is the more potent here.

From patent publication US20240002368A1 (QILU REGOR THERAPEUTICS INC., priority 2020, published 2024)
